In a compilation of properties of binary mixtures (doi:10.1016/j.fluid.2022.113414):

Test: xn = mol fraction of the nth substance listed
Conditions: 101.3 kPa

CC(=O)[O-].CN1CCCN2CCC[NH+]=C12 + O
viscosity [mPa·s]
Conditions | x1 = 0.103 | x1 = 0.206 | x1 = 0.301 | x1 = 0.405 | x1 = 0.494 | x1 = 0.604
278.2 K | 46 | 329 | 945 | – | 2689 | 3358
283.2 K | – | – | 554 | 1023.1 | – | 1825.2
288.2 K | 24.1 | 131.4 | 340 | 609 | 873 | 1046.1
293.2 K | 18.1 | 87.9 | 217.7 | – | 533 | 629
298.2 K | 13.9 | 61.2 | – | 244.9 | – | 396
303.2 K | 10.9 | 43.9 | – | 164.9 | 224.5 | –
308.2 K | 8.77 | – | – | 114.8 | 153.9 | 176.1
313.2 K | 7.19 | 24.72 | – | 82.4 | – | 123.6
318.2 K | 5.94 | 19.23 | – | 60.6 | – | 89.4
323.2 K | 4.99 | 15.23 | 30 | 45.8 | 59.3 | –
328.2 K | 4.24 | 12.3 | 23.57 | 35.39 | 45.37 | 50.43
333.2 K | 3.65 | – | 18.81 | 27.89 | 35.43 | 39.17
338.2 K | 3.15 | 8.44 | 15.29 | 22.37 | – | 31.03
343.2 K | – | 7.12 | 12.65 | 18.24 | 22.81 | 25.01
348.2 K | 2.45 | 6.08 | 10.59 | 15.11 | 18.74 | 20.47
353.2 K | 2.19 | 5.25 | – | 12.66 | 15.61 | 16.99
358.2 K | – | – | 7.69 | 10.74 | 13.17 | –
363.2 K | 1.78 | 4 | 6.66 | 9.21 | 11.24 | –
368.2 K | – | 3.54 | 5.83 | 7.98 | 9.68 | –
373.2 K | – | 3.17 | – | 6.97 | 8.42 | –
